Consider five compounds from paper PMC4731795, “New α-glucosidase inhibitors from marine algae-derived Streptomyces sp. OUCMDZ-3434” (Scientific Reports, 2016).

Series [1] has as its target α-glucosidase. Put plainly: α-Glucosidase inhibitory effect assay with pNPG as substrate. The class given is biochemical. The settings on record: 37 °C, 15 min, pH 6.8, read-out: IC50, α-glucosidase inhibition. As for the experimental part:
The inhibitory effects were assayed as described preciously. The sample was dissolved in sodium phosphate buffer (PBS, pH 6.8) at three concentrations. A volume of 10 μL of the sample solution, 20 μL of PBS and 20 μL of […] p-nitrophenyl-α-D-glucopyranoside (pNPG) solution (in phosphate buffer) were mixed in a 96-well microplate and incubated at 37 °C for 5 min. […] After incubating at 37 °C for 15 min, the absorbance at 405 nm was recorded by a Spectra max 190 micro plate reader (Molecular Devices Inc.).

For series [2], the system named is α-glucosidase. As to the kind of experiment: Kinetics of α-glucosidase inhibition (Lineweaver-Burk plot analysis). The class given is biochemical. The settings on record: for mode of α-glucosidase inhibition: Lineweaver-Burk plot; for Ki: pNPG 0.5–2.0 mM, 37 °C, 15 min. How it is done:
Optimal amounts of compounds 1 and 2 used were determined based on the enzyme inhibitory activity assay.

The nature of series [3]: Cytotoxic assay by MTT method. The class given is cell-based, murine. Particulars: murine, IEC-6 small intestinal cells, MTT, 72 h exposure; read-out: CC50, cytotoxicity on IEC-6 cell line. How it is done:
(§1) The cytotoxicity on murine small intestinal IEC-6 cells were assayed by MTT (3-[4,5-dimethyl thiazol-2-yl]-2,5-diphenyl tetrazolium bromide) method. The IEC-6 cells were cultured in Dulbecco’s modified Eagle’s medium (DMEM) supplemented with 5% fetal bovine serum (FBS) under a humidified atmosphere of 5% CO2 and 95% air at 37 °C. Cell suspension, 100 μL, at a density of 2 × 10^4 cell mL^−1 was plated in 96-well microtiter plates and exposed to different concentrations of compounds in triplicate for 72 h. The initial concentrations of compounds were 2 mg/mL in DMSO, and then were diluted into 625, 125, 25, 5, and 1 μg/mL with RPMI-1640 medium, respectively. The experiments were divided into blank control, testing compounds and the positive control groups, and each group was set up three parallels. Then, 10 μL of PBS containing MTT (final concentration: 0.5 mg/mL) was added to each well. After 4 h incubation at 37 °C, the supernatant was removed and 200 μL of DMSO was added to each well to solubilize the formazan crystals. After vigorous shaking, absorbance values were measured in a microplate reader (Bio-Rad, USA) at 570 nm. The cytotoxicity was represented at these concentrations as [(ODblank − ODdrug)/ODblank × 100%]. The CC50 value, defined as the compound concentration necessary to induce cell cytotoxicity by 50%, was calculated by SPSS (Statistical Product and Service Solutions) v19.0 software.

Series [4] deals with murine small intestinal IEC-6 cells. As to the kind of experiment: Cytotoxic assay by MTT method. It counts as cell-based. The settings on record: for selectivity index (SI): CC50 (IEC-6) relative to IC50 (α-glucosidase). As for the experimental part: as §1
(In general: Formazan colour is commonly taken as a measure of viable cells.)

Molecules are shown by their SMILES.

As to `O=C1C[C@](O)(c2ccccc2)[C@@H](c2cc(O)c(Cc3c(O)cc(-c4c(-c5ccccc5)cc(O)c5c(O)cccc45)oc3=O)c(=O)o2)c2cccc(O)c21` [Compound 1, Wailupemycin H], in series [1], the IC50 stood at 19.7 µM. In addition, in series [2], the “mode of α-glucosidase inhibition” value is listed as “competitive” and affinity was put at a Ki of 16.8 µM. Also, the half-maximal cytotoxic concentration (CC50) at 72 h in series [3] was 280 µM. In series [4], the “selectivity index (SI)” value is on record as 14.2.

As to `O=C1C[C@](O)(c2ccccc2)[C@H](c2cc(O)c(Cc3c(O)cc(-c4c(-c5ccccc5)cc(O)c5c(O)cccc45)oc3=O)c(=O)o2)c2cccc(O)c21` [Compound 2, Wailupemycin I], in series [1], the IC50 turned out to be 8.3 µM. Further, in series [2], the “mode of α-glucosidase inhibition” value is on record as “competitive” and the Ki amounted to 6 µM. In series [3], the CC50 at 72 h stood at 1320 µM. In series [4], the “selectivity index (SI)” value came to 158.5.

`O=c1cc(O)cc(-c2c(-c3ccccc3)cc(O)c3c(O)cccc23)o1` [Compound 5, wailupemycin G]: the half-maximal inhibitory concentration (IC50) in series [1] turned out to be 239 µM. In series [3], the CC50 at 72 h came out at 2950 µM. The “selectivity index (SI)” value in series [4] is reported as 12.3.

With `O=C1CC(O)(c2ccccc2)C(c2cc(O)cc(=O)o2)c2cccc(O)c21` (stereo not shown) [Compound 3, Wailupemycin D], the concentration for half-maximal inhibition (IC50) in series [1] turned out to be 989 µM. Besides, the CC50 at 72 h in series [3] turned out to be 2750 µM. In series [4], the “selectivity index (SI)” value is recorded as 2.8.

As to `O=C1CC(O)(c2ccccc2)C(c2cc(O)cc(=O)o2)c2cccc(O)c21` (stereo not shown) [Compound 4, Wailupemycin E], in series [1], the concentration for half-maximal inhibition (IC50) was determined as 392 µM. For the same compound, the “selectivity index (SI)” value in series [4] is listed as 7.6. Moreover, in series [4] (MTT, 72 h exposure, read-out: CC50, cytotoxicity on IEC-6 cell line), the CC50 was 2980 µM.

What is called IC50 is the point on the concentration scale where inhibition reaches its midpoint. By Ki is commonly meant a dissociation constant, usually derived from enzyme kinetics or from competition with a known ligand. By CC50 is commonly meant the concentration that lowers cell viability or growth by half.
